Assay results as given in ChEMBL document CHEMBL1149377, “8-(1-Naphthalen-2-yl-vinyl)-6,7,10-trioxaspiro (4.5) decane, a new 1,2,4-trioxane effective against rodent and simian malaria” (2006).

What was measured:
Plasmodium yoelii [1] = assay: Antimalarial activity against Plasmodium yoelii in Swiss mice (Mus musculus) model at 96 mg/kg peroral dose; format: functional; settings: route oral
Plasmodium yoelii [2] = assay: Antimalarial activity in Plasmodium yoelii MDR infected Swiss mice (Mus musculus) at 96 mg/kg Intramuscular dose; format: functional; settings: im
Plasmodium yoelii [3] = assay: Antimalarial activity against Plasmodium yoelii infected Swiss mice (Mus musculus) at 192 mg/kg peroral dose; format: functional; settings: route oral
Plasmodium yoelii [4] = assay: Antimalarial activity against Plasmodium yoelii infected Swiss mice (Mus musculus) at 72 mg/kg Intramuscular dose; format: functional; settings: im
Plasmodium yoelii [5] = assay: Antimalarial activity against Plasmodium yoelii infected Swiss mice (Mus musculus) at 48 mg/kg Intramuscular dose; format: functional; settings: im
Plasmodium cynomolgi = assay: Elimination of parasitaemia in Plasmodium cynomolgi infected Rhesus monkeys (Macaca mulatta) at 20 mg/kg intramuscular or 40 mg/kg peroral dose; format: functional, organism-based
Plasmodium yoelii [6] = assay: Antimalarial activity against Plasmodium yoelii infected Swiss mice (Mus musculus) at 48 mg/kg peroral dose; format: functional; settings: route oral
Plasmodium yoelii [7] = assay: Antimalarial activity against Plasmodium yoelii infected Swiss mice (Mus musculus) at 24 mg/kg intramuscular dose; format: functional; settings: im

Work on `C=C(c1cccc2ccccc12)C1COC2(CCCCC2)OO1` (configuration not stated) yielded an inhibition in vivo at 96 mg/kg (Plasmodium yoelii [1]) of 83% and an inhibition in vivo at 96 mg/kg (Plasmodium yoelii [2]) of 87%.

In the case of `C=C(c1ccc2ccc3ccccc3c2c1)C1COC2(CCCC2)OO1` (configuration not stated), the inhibition in vivo at 96 mg/kg (Plasmodium yoelii [1]) is reported as 64% and the inhibition in vivo at 96 mg/kg (Plasmodium yoelii [2]) is reported as 99%.

With `C=C(c1ccc2ccc3ccccc3c2c1)C1COC2(CCCCC2)OO1` (configuration not stated) the inhibition in vivo at 96 mg/kg (Plasmodium yoelii [1]) was 99% and the inhibition in vivo at 96 mg/kg (Plasmodium yoelii [2]) was 13%.

Work on `C=C(c1ccc2c(c1)Cc1ccccc1-2)C1COC2(CCCC2)OO1` (configuration not stated) yielded an inhibition in vivo at 96 mg/kg (Plasmodium yoelii [1]) of 100% and an inhibition in vivo at 96 mg/kg (Plasmodium yoelii [2]) of 100%.

Compound `C=C(c1ccc2ccccc2c1)C1COC2(CCCC2)OO1` (configuration not stated) has an inhibition in vivo at 192 mg/kg (Plasmodium yoelii [3]) of 100%, an inhibition in vivo at 72 mg/kg (Plasmodium yoelii [4]) of 96% and an inhibition in vivo at 48 mg/kg (Plasmodium yoelii [5]) of 97%. It also gave an inhibition in vivo at 96 mg/kg (Plasmodium yoelii [1]) of 90%, an inhibition in vivo at 96 mg/kg (Plasmodium yoelii [2]) of 100% and a clearance (Plasmodium cynomolgi) of 100%.

Work on `C=C(c1ccc(F)cc1)C1COC2(CCCCC2)OO1` (configuration not stated) yielded an inhibition in vivo at 96 mg/kg (Plasmodium yoelii [1]) of 14% and an inhibition in vivo at 96 mg/kg (Plasmodium yoelii [2]) of 89%.

`CCN(CC)CCCC(C)Nc1ccnc2cc(Cl)ccc12` (configuration not stated) [CHLOROQUINE] was tested, and the inhibition in vivo at 96 mg/kg (Plasmodium yoelii [1]) was 100% and the inhibition in vivo at 48 mg/kg (Plasmodium yoelii [6]) was 100%.

`C=C(c1ccc2c(c1)Cc1ccccc1-2)C1COC2(CCCCC2)OO1` (configuration not stated) was tested, and the inhibition in vivo at 96 mg/kg (Plasmodium yoelii [1]) was 100% and the inhibition in vivo at 96 mg/kg (Plasmodium yoelii [2]) was 83%.

Compound `C=C(c1ccccc1)C1COC2(CCCC2)OO1` (configuration not stated) has an inhibition in vivo at 96 mg/kg (Plasmodium yoelii [1]) of 15% and an inhibition in vivo at 96 mg/kg (Plasmodium yoelii [2]) of 100%.

Compound `C=C(c1ccc2c(ccc3ccccc32)c1)C1COC2(CCCCC2)OO1` (configuration not stated) has an inhibition in vivo at 96 mg/kg (Plasmodium yoelii [1]) of 100% and an inhibition in vivo at 96 mg/kg (Plasmodium yoelii [2]) of 81%.

`C=C(c1ccc2ccccc2c1)C1COC2(CCCCC2)OO1` (configuration not stated) was tested, and the inhibition in vivo at 48 mg/kg (Plasmodium yoelii [5]) was 60% and the inhibition in vivo at 96 mg/kg (Plasmodium yoelii [2]) was 97%.

With `C=C(c1ccc2c(ccc3ccccc32)c1)C1COC2(CCCC2)OO1` (configuration not stated) the inhibition in vivo at 96 mg/kg (Plasmodium yoelii [1]) was 100% and the inhibition in vivo at 96 mg/kg (Plasmodium yoelii [2]) was 100%.

`C=C(c1cccc2ccccc12)C1COC2(CCCC2)OO1` (configuration not stated) showed an inhibition in vivo at 96 mg/kg (Plasmodium yoelii [1]) of 78% and an inhibition in vivo at 96 mg/kg (Plasmodium yoelii [2]) of 91%.

For `C[C@@H]1CC[C@H]2[C@@H](C)C(=O)O[C@@H]3O[C@@]4(C)CC[C@@H]1[C@]32OO4` [ARTEMISININ], the inhibition in vivo at 24 mg/kg (Plasmodium yoelii [7]) was 100% and the inhibition in vivo at 48 mg/kg (Plasmodium yoelii [5]) was 100%.
